Columns and labels:
kochia = assay: Test C postemergence; type: in vivo, Kochia scoparia; details: Bassia scoparia, post-emergence
How it was run: (§1)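 Preemergence: seeds sown in a loam soil–sand blend and sprayed with test chemical in a non-phytotoxic solvent mixture containing surfactant. Postemergence: plants at 2 to 18 cm (1- to 4-leaf stage) in peat-based medium, treated with the same formulation. Greenhouse 13 to 15 days, then visual rating 0 (no effect) to 100 (complete control).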

wheat [1] = assay: Test A preemergence; type: in vivo, Triticum aestivum
How it was run: (§2)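 Scoring: eye-based comparison with untreated controls, 0 for no effect through 100 for complete control, at about day 10. Treatments: directed soil spray preemergence; foliar spray postemergence on 2–10 cm plants at the one- to two-leaf stage. Medium: loam soil with sand.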

wheat [2] = assay: Test A postemergence; type: in vivo, Triticum aestivum; details: Triticum aestivum, post-emergence, 240 h, 0 to 100 scale where 0 is no effect and 100 is complete control, read-out: Plant response rating, Wheat
How it was run: as §2

Heteranthera limosa = assay: Test B flooded paddy test; type: in vivo; details: Heteranthera limosa, Flood, 250 g ai/ha; 0 to 100 scale where 0 is no effect and 100 is complete control; read-out: Plant response rating, Ducksalad
How it was run: (§3)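 Plants were grown to the 2-leaf stage, then pots were flooded to 3 cm above the soil and compounds were applied directly into the paddy water. That depth was held throughout, and after 13 to 15 days in the greenhouse injury was rated visually against controls on a 0–100 scale (0 no effect, 100 complete control).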

oilseed rape = assay: Test C postemergence; type: in vivo, Brassica napus; details: Brassica napus, post-emergence
How it was run: as §1

large (Lg) crabgrass [3] = assay: Test A postemergence; type: in vivo, Digitaria sanguinalis; details: Digitaria sanguinalis, post-emergence, 240 h
How it was run: as §2

soybean = assay: Test C postemergence; type: in vivo, Glycine max; details: Glycine max, post-emergence
How it was run: as §1

giant foxtail = assay: Test A postemergence; type: in vivo, Setaria faberii; details: Setaria faberi, post-emergence, 240 h, 0 to 100 scale where 0 is no effect and 100 is complete control, read-out: Plant response rating, Foxtail, Giant
How it was run: as §2

velvetleaf [4] = assay: Test A postemergence; type: in vivo, Abutilon theophrasti; details: Abutilon theophrasti, post-emergence, 240 h, 0 to 100 scale where 0 is no effect and 100 is complete control, read-out: Plant response rating, Velvetleaf
How it was run: as §2

morningglory = assay: Test C postemergence; type: in vivo, Ipomoea coccinea; details: Ipomoea, post-emergence
How it was run: as §1

velvetleaf [5] = assay: Test C postemergence; type: in vivo, Abutilon theophrasti; details: Abutilon theophrasti, post-emergence
How it was run: as §1

lambsquarters = assay: Test C postemergence; type: in vivo, Chenopodium album; details: Chenopodium album, post-emergence
How it was run: as §1

large (Lg) crabgrass [6] = assay: Test A preemergence; type: in vivo, Digitaria sanguinalis; details: Digitaria sanguinalis, pre-emergence, 240 h
How it was run: as §2

pigweed = assay: Test C postemergence; type: in vivo, Amaranthus retroflexus; details: Amaranthus retroflexus, post-emergence
How it was run: as §1

rice = assay: Test B flooded paddy test; type: in vivo, Oryza sativa; details: Oryza sativa; Flood, 250 g ai/ha; 0 to 100 scale where 0 is no effect and 100 is complete control; read-out: Plant response rating, Rice
How it was run: as §3

velvetleaf [7] = assay: Test A preemergence; type: in vivo, Abutilon theophrasti
How it was run: as §2

[8] = 125 g ai/ha, 0 to 100 scale where 0 is no effect and 100 is complete control
[9] = 125 g ai/ha, 0 to 100 scale where 0 is no effect and 100 is complete control, read-out: Plant response rating, Crabgrass, Large

FC(F)c1cnn(-c2ccccc2Oc2ncc(Cl)cn2)c1 [Compound 80, 5-chloro-2-[2-[4-(difluoromethyl)-1H-pyrazol-1-yl]phenoxy]pyrimidine]
pest or weed control at 16 g/ha (kochia; 16 g ai/ha, postemergence, visual rating, scale 0 to 100 (0 no effect, 100 complete control), 13 to 15 days, read-out: Kochia plant response rating): 60%
pest or weed control at 125 g/ha (kochia; 125 g ai/ha, postemergence, read-out: Plant response rating (0 to 100), Kochia): 95%
pest or weed control at 31 g/ha (kochia; Postemergence, 31 g ai/ha, scale 0 to 100 (0 no effect, 100 complete control), 13 to 15 days, read-out: Plant response rating, Kochia): 90%
pest or weed control at 62 g/ha (kochia; Postemergence, 62 g ai/ha, scale 0 to 100 (0 no effect, 100 complete control), read-out: Plant response rating, Kochia): 95%
Plant response rating, Wheat (wheat [1]; [8]): 10
plant injury at 500 g/ha (wheat [1]; Triticum aestivum, pre-emergence, 240 h, 500 g ai/ha, 0 to 100 scale, 0 no effect, 100 complete control, approx. 10 days, read-out: Wheat plant response rating): 50%
plant injury at 125 g/ha (wheat [2]; 125 g ai/ha): 40%
plant injury at 500 g/ha (wheat [2]; 500 g ai/ha): 80%
pest or weed control at 250 g/ha (Heteranthera limosa): 100%
plant injury at 125 g/ha (oilseed rape; 125 g ai/ha, postemergence, read-out: Plant response rating (0 to 100), Oilseed Rape): 90%
plant injury at 31 g/ha (oilseed rape; Postemergence, 31 g ai/ha, scale 0 to 100 (0 no effect, 100 complete control), 13 to 15 days, read-out: Plant response rating, Oilseed Rape): 70%
plant injury at 62 g/ha (oilseed rape; Postemergence, 62 g ai/ha, scale 0 to 100 (0 no effect, 100 complete control), read-out: Plant response rating, Oilseed Rape): 80%
pest or weed control at 125 g/ha (large (Lg) crabgrass [3]; [9]): 80%
pest or weed control at 500 g/ha (large (Lg) crabgrass [3]; 500 g ai/ha, 0 to 100 scale, 0 no effect, 100 complete control, read-out: Plant response rating Crabgrass, Large): 100%
Soybean plant response rating (crop injury, 0-100 scale) at 125 g/ha (soybean; 125 g ai/ha, postemergence, read-out: Plant response rating (0 to 100), Soybean): 80%
Soybean plant response rating (crop injury, 0-100 scale) at 31 g/ha (soybean; Postemergence, 31 g ai/ha, scale 0 to 100 (0 no effect, 100 complete control), 13 to 15 days): 60%
Soybean plant response rating (crop injury, 0-100 scale) at 62 g/ha (soybean; Postemergence, 62 g ai/ha, scale 0 to 100 (0 no effect, 100 complete control)): 75%
pest or weed control at 125 g/ha (giant foxtail; 125 g ai/ha): 80%
pest or weed control at 500 g/ha (giant foxtail; 500 g ai/ha): 90%
pest or weed control at 125 g/ha (velvetleaf [4]; 125 g ai/ha): 100%
pest or weed control at 500 g/ha (velvetleaf [4]; 500 g ai/ha): 100%
pest or weed control at 125 g/ha (morningglory; 125 g ai/ha, postemergence, read-out: Plant response rating (0 to 100), Morningglory): 60%
pest or weed control at 31 g/ha (morningglory; Postemergence, 31 g ai/ha, scale 0 to 100 (0 no effect, 100 complete control), 13 to 15 days, read-out: Plant response rating, Morningglory): 10%
pest or weed control at 62 g/ha (morningglory; Postemergence, 62 g ai/ha, scale 0 to 100 (0 no effect, 100 complete control), read-out: Plant response rating, Morningglory): 60%
pest or weed control at 125 g/ha (velvetleaf [5]; 125 g ai/ha, postemergence, read-out: Plant response rating (0 to 100), Velvetleaf): 75%
pest or weed control at 31 g/ha (velvetleaf [5]; Postemergence, 31 g ai/ha, scale 0 to 100 (0 no effect, 100 complete control), 13 to 15 days, read-out: Plant response rating, Velvetleaf): 45%
pest or weed control at 62 g/ha (velvetleaf [5]; Postemergence, 62 g ai/ha, scale 0 to 100 (0 no effect, 100 complete control), read-out: Plant response rating, Velvetleaf): 65%
pest or weed control at 125 g/ha (lambsquarters; 125 g ai/ha, postemergence, read-out: Plant response rating (0 to 100), Lambsquarters): 55%
pest or weed control at 31 g/ha (lambsquarters; Postemergence, 31 g ai/ha, scale 0 to 100 (0 no effect, 100 complete control), 13 to 15 days, read-out: Plant response rating, Lambsquarters): 60%
pest or weed control at 62 g/ha (lambsquarters; Postemergence, 62 g ai/ha, scale 0 to 100 (0 no effect, 100 complete control), read-out: Plant response rating, Lambsquarters): 55%
pest or weed control at 125 g/ha (large (Lg) crabgrass [6]; [9]): 100%
pest or weed control at 500 g/ha (large (Lg) crabgrass [6]; 500 g ai/ha, 0 to 100 scale, 0 no effect, 100 complete control, approx. 10 days, read-out: Crabgrass, Large plant response rating): 100%
pest or weed control at 125 g/ha (pigweed; 125 g ai/ha, postemergence, read-out: Plant response rating (0 to 100), Pigweed): 75%
pest or weed control at 31 g/ha (pigweed; Postemergence, 31 g ai/ha, scale 0 to 100 (0 no effect, 100 complete control), 13 to 15 days, read-out: Plant response rating, Pigweed): 60%
pest or weed control at 62 g/ha (pigweed; Postemergence, 62 g ai/ha, scale 0 to 100 (0 no effect, 100 complete control), read-out: Plant response rating, Pigweed): 65%
plant injury at 250 g/ha (rice): 0%
Plant response rating, Velvetleaf (velvetleaf [7]; [8]): 80
pest or weed control at 500 g/ha (velvetleaf [7]; Abutilon theophrasti, pre-emergence, 240 h, 500 g ai/ha, 0 to 100 scale, 0 no effect, 100 complete control, approx. 10 days, read-out: Velvetleaf plant response rating): 90%
